For data set [1], the species on record is Mus musculus. Put plainly: Effective concentration required for interleukin-6 transrepression in peritoneal exudate cells of C57B1/6 mouse using 62% Dexamethasone. The format is functional, cell-based.
The test system of data set [2] is Mus musculus. Nature of the data set: Inhibition of LPS induced TNF-alpha secretion in mouse at an oral dose of 30 mg/kg relative to that produced by Dexamethasone at a dose of 0.3 mg/kg. Format: functional.
The species named for data set [3] is Mus musculus. Nature of the data set: Effective concentration required for inhibition of interleukin-6 in mouse thioglycolate-elicited peritoneal exudate cell line using 62% radiolabeled Dexamethasone. Format: functional.
In data set [4] the test system is A549. Put plainly: Effective concentration for inhibition of interleukin-6 in human A549 lung carcinoma cell line using 75% radiolabeled Dexamethasone. Format: functional, cell-based.
For data set [5], the target named is T1, Glucocorticoid receptor (Homo sapiens, UniProt P04150).
T1 sequence (P04150 whole entry): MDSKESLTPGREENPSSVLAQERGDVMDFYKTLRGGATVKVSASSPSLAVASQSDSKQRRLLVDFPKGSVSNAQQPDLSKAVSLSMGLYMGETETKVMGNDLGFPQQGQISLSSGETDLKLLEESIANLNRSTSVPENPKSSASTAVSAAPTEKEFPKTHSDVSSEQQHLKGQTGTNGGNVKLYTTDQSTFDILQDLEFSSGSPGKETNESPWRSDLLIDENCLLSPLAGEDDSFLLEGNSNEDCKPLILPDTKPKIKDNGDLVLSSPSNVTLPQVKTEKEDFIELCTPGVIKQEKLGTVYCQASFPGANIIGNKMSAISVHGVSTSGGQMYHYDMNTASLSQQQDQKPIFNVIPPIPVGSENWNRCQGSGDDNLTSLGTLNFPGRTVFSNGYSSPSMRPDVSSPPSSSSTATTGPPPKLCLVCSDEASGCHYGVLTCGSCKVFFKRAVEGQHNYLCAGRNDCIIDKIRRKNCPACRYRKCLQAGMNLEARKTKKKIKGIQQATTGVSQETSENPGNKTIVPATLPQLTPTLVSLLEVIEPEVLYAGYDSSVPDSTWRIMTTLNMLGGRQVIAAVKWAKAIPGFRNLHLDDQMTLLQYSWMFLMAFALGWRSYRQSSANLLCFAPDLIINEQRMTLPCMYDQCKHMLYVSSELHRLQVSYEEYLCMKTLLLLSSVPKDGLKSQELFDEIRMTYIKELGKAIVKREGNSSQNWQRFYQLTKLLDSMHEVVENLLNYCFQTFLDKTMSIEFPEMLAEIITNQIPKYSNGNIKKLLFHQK
Nature of the data set: Inhibition of human glucocorticoid receptor alpha isoform.

The subject of data set [6] is A549. Nature of the data set: Effective concentration for inhibition of interleukin-6 in human A549 lung carcinoma cell line using 46% radiolabeled Dexamethasone. Format: functional, cell-based.
Data set [7] is filed under the species Mus musculus. Put plainly: Effective concentration required for interleukin-6 transrepression in peritoneal exudate cells of C57B1/6 mouse using 69% Dexamethasone. Format: functional, cell-based.
A short description of data set [8]: Clearance data in mouse at 2 mg/kg IV administration. More on the design: dose 2 mg/kg, route intravenous. The format is ADME, organism-based. To be noted: in vivo.
The subject of data set [9] is A549. Put plainly: Effective concentration for inhibition of interleukin-6 in human A549 lung carcinoma cell line using 60% radiolabeled Dexamethasone. The format is functional, cell-based.
For data set [10], the species on record is Mus musculus. Put plainly: Effective concentration required for inhibition of interleukin-6 in mouse thioglycolate-elicited peritoneal exudate cell line using 69% radiolabeled Dexamethasone. Format: functional.
The nature of data set [11]: Bioavailability in mouse (dose 10 mg/kg p.o.). The format is ADME, organism-based. To be noted: in vivo, po.
Another data set has as its target T2, Estrogen receptor (Homo sapiens, UniProt P03372).
T2 sequence (P03372 whole entry): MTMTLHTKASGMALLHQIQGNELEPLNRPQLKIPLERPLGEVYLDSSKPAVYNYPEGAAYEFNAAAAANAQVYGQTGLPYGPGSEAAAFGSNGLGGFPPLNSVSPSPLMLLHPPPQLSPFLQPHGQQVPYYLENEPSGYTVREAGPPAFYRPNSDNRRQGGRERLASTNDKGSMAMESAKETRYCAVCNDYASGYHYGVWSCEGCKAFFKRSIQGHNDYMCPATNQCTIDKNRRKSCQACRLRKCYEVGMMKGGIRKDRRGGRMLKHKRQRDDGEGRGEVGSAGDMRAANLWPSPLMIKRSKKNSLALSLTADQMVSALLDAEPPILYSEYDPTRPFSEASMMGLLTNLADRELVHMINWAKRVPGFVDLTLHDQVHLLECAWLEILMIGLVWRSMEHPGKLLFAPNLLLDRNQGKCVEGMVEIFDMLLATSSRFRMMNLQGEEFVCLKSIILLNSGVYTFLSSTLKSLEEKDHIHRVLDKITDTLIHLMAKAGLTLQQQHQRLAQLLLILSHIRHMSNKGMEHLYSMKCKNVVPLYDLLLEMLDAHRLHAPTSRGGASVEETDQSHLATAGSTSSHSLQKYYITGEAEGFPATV
Nature of the data set: Binding affinity for human estrogen receptor alpha.

A further data set has as its target Estrogen receptor beta (Homo sapiens, UniProt Q92731). Nature of the data set: Binding affinity for human estrogen receptor beta.
Data set [12] in a line: Half life time in mouse at 2 mg/kg IV administration. More on the design: dose 2 mg/kg, route intravenous. Format: ADME, organism-based. The settings on record: in vivo.
The target in data set [13] is T3, Mineralocorticoid receptor (Rattus norvegicus, UniProt P22199).
T3 sequence (P22199 whole entry): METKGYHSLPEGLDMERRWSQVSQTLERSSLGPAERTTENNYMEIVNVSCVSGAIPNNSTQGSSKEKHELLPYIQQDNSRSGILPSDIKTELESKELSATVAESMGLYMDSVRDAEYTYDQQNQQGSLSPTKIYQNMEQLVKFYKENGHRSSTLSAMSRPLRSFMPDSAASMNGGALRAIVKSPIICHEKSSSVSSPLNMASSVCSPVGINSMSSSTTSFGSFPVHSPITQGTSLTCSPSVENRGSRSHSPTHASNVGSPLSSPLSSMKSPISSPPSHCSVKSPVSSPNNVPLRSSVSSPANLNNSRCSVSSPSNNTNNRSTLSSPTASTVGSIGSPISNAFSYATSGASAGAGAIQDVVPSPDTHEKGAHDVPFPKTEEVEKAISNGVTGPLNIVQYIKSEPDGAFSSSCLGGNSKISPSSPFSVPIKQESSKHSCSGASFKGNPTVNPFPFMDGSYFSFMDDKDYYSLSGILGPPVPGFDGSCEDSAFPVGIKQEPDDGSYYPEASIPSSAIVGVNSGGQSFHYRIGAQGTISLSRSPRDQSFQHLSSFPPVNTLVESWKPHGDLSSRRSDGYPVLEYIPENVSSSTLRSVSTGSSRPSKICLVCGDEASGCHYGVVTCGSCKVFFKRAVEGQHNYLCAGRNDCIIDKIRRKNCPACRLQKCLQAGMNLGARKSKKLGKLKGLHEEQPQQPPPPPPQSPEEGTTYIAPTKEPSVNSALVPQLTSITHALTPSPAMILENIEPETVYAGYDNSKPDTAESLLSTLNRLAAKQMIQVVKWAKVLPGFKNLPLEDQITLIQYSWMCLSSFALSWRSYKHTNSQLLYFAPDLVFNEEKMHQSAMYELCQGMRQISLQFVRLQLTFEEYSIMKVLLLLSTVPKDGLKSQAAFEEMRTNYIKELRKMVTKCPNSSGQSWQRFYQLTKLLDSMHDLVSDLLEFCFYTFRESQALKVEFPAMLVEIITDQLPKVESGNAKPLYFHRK
Put plainly: Binding affinity for rat mineralocorticoid receptor.

Data set [14] addresses T1, Glucocorticoid receptor. Put plainly: Binding affinity for human glucocorticoid receptor.
The nature of data set [15]: Volume of distribution in mouse at 2 mg/kg IV administration. Format: ADME, organism-based. On the set-up: dose 2 mg/kg, route intravenous. The settings on record: in vivo, read-out: Volume of distribution.
For data set [16], the species on record is Mus musculus. Nature of the data set: Effective concentration required for inhibition of interleukin-6 in mouse thioglycolate-elicited peritoneal exudate cell line using 111% radiolabeled Dexamethasone. Format: functional.
The next data set concerns HepG2. Put plainly: Effective concentration required for induction of tyrosine aminotransferase in human HepG2 cells using 74% radiolabeled Dexamethasone. Format: functional, cell-based.
Data set [17] can be described thus: Effective concentration required for induction of glutamine synthetase in human skeletal muscle cells using 45% radiolabeled Dexamethasone. Format: functional.
Data set [18] relates to A549. Nature of the data set: Effective concentration required for inhibition of interleukin-6 in human A549 lung carcinoma cell line using 93% radiolabeled Dexamethasone. Format: functional, cell-based.
Data set [19] is filed under the species Mus musculus. Nature of the data set: Effective concentration required for inhibition of interleukin-6 in mouse thioglycolate-elicited peritoneal exudate cell line using 72% radiolabeled Dexamethasone. The format is functional.
Data set [20] relates to A549. Nature of the data set: Effective concentration for inhibition of interleukin-6 in human A549 lung carcinoma cell line using 58% radiolabeled Dexamethasone. Format: functional, cell-based.

SMILES strings stand for the structures. Where only a bound is given, the exact number is not on record here.

Sequence of Estrogen receptor beta (Q92731 whole entry): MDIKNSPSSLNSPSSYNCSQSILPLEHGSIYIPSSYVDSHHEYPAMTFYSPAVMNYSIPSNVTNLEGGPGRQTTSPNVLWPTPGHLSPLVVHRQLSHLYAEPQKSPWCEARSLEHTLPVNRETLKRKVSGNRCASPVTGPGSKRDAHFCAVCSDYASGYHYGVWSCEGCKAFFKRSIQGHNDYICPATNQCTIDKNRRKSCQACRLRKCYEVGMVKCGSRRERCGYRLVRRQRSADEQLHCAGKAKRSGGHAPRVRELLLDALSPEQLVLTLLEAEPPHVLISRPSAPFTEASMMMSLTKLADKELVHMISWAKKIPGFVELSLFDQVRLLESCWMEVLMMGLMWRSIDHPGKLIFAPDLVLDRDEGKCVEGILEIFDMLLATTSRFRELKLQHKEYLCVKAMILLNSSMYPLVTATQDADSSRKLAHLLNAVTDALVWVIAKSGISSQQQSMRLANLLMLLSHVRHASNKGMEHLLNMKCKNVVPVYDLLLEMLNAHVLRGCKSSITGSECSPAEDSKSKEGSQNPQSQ

As to `CC[C@H]1OC2(CCC3=Cc4c(cnn4-c4ccc(F)cc4)C[C@@]32C)O[C@@H]1CC`, the EC50 came to 36 nM in the data set listed under Mus musculus [1], 36 nM in the data set filed under Mus musculus [3] and 24 nM in the data set on A549 [4]. Also, the Inhibition in the data set on Mus musculus [2] amounted to 97.8%. For the same compound, it took 6.6 nM to reach half-maximal inhibition at Glucocorticoid receptor [5] (IC50).

With `C[C@@H]1CCO[C@@]2(CCC3=Cc4c(cnn4-c4ccc(F)cc4)C[C@@]32C)O1`, in the data set on A549 [6], a half-maximal response (EC50) required 0.48 nM. At Glucocorticoid receptor [5], this compound came in with a concentration for half-maximal inhibition (IC50) of 18 nM.

Regarding `C[C@H]1C[C@H](C)OC2(CCC3=Cc4c(cnn4-c4ccc(F)cc4)C[C@@]32C)O1` (stereo partly drawn), the results for the EC50 in the data set listed under Mus musculus [7], with A549 [9] and in the data set filed under Mus musculus [10] were 54 nM, 13 nM and 54 nM, respectively. The compound further gave an Inhibition with Mus musculus [2] of 80.8%. Further, the clearance in [8] worked out at 118 mL/min/kg. In data set [11], the bioavailability stood at 23%. In addition, the IC50 on Estrogen receptor was above 10000 nM; at Estrogen receptor beta, above 10000 nM; in data set [13], above 10000 nM; on Glucocorticoid receptor [14] it was 7.1 nM; at Glucocorticoid receptor [5], 7.1 nM. In data set [12], this compound gave a half-life of 3 h. For the same compound, in data set [15], the Vd worked out at 27.2 L/kg.

As for `C/C=C/[C@H]1OC2(CCC3=Cc4c(cnn4-c4ccc(F)cc4)C[C@@]32C)O[C@@H]1/C=C/C`, the half-maximal effective concentration (EC50) was 7.6 nM in the data set filed under Mus musculus [16], 164 nM in the data set with HepG2, 17 nM in [17] and 6.5 nM in the data set with A549 [18]. Also, on Glucocorticoid receptor [5], it took 2.7 nM to reach half-maximal inhibition (IC50).

In the case of `C[C@@H]1C[C@@H](C)OC2(CCC3=Cc4c(cnn4-c4ccc(F)cc4)C[C@@]32C)O1` (stereo in doubt; form 1), the EC50 is 45 nM in the data set listed under Mus musculus [19] and 7.5 nM with A549 [20]. This compound also had a half-inhibitory concentration (IC50) on Glucocorticoid receptor [5] of 8.4 nM.
